Reference: US20120189543A1, “Compositions and Methods for Detecting and Treating Implant Loosening and Osteolysis” (priority 2009, published 2012)

Tests used:
[1] = test system: pro-inflammatory cytokine response (e.g., TNF and IL-1); test: Particle-induced pro-inflammatory cytokine response in human monocytes; details: pretreatment of PMMA challenged monocytes
Description: (§1) Cells were cultured for 24 hours at a cell density of 10^6 cells/mL in a-MEM medium (Invitrogen, Carlsbad, Calif.) supplemented with 10% fetal bovine serum (VWR, West Chester, Pa.) and 1% antibiotic/antimycotic (Invitrogen, Carlsbad, Calif.) in the presence of 10 ng/mL human M-CSF (Peprotech, Rocky Hill, N.J.) in 24-well tissue culture plates (1 mL/well). Cells were then pulsed for 4 hours with P-Dex (5 μM) or free Dex (dexamethasone phosphate sodium, 0.6 μM), washed and replenished with fresh medium. […] After 24 hours, cells were treated +/−PMMA particles (30 particles/cell) for 3 hours. Total cellular RNA was prepared (RNeasy, Qiagen) and analyzed by real-time RT-PCR as previously described for inflammatory cytokines (IL 1-α, IL-1- β).

IL-1α mRNA = test: PMMA particle-induced IL-1α mRNA in cultured human monocytes (real-time RT-PCR); details: 4 hours pulse P-Dex 5 μM or free Dex 0.6 μM, PMMA 3 hours; n=3; p<0.05
Description: as §1

IL-1β mRNA = test: PMMA particle-induced IL-1β mRNA in cultured human monocytes (real-time RT-PCR); details: 4 hours pulse P-Dex 5 μM or free Dex 0.6 μM, PMMA 3 hours; n=3
Description: as §1

[2] = test system: PMMA particle implantation site (calvaria); design: species or system Swiss Webster mice; details: mouse, in vivo
Excerpt: The group injected with PBS was used as a negative control and was given the same dose of P-IRDye. The mice were imaged prior to and daily after contrast agent injection using an XENOGEN IVIS® 200 Series Imaging System (Hopkinton, Mass.) to evaluate the distribution of the HPMA copolymer conjugate continuously for the 6 days.

Row | Molecule | effect of pretreatment on particle-induced pro-inflammatory cytokine response [1] | IL-1α mRNA level of PMMA group compared with treated group (IL-1α mRNA) | IL-1β mRNA level of PMMA group compared with treated group (IL-1β mRNA) | NIR signal at particle implantation site, % of the original signal intensity [2] [%] | persistence of the P-IRDye signal [2]
1 | C[C@@H]1C[C@H]2[C@@H]3CCC4=CC(=O)C=C[C@]4(C)[C@@]3(F)[C@@H](O)C[C@]2(C)[C@@]1(O)C(=O)COP(=O)([O-])[O-].[Na+].[Na+] [Dex, dexamethasone phosphate sodium] | significant repression | significantly higher | higher (but not significantly) |  | 
2 | IRDye 800CW-labeled HPMA Copolymer [P-IRDye] |  |  |  | 60 | over 7 days
